Reference: patent publication US20210205292A1, “INHIBITORS OF CREB-CBP INTERACTION FOR TREATMENT OF LEUKEMIA” (The Board of Trustees of the Leland Stanford Junior …, priority 2016, published 2021)

Experiments:
[1] = molecular target: T1, KIX domain of CBP, Arginine-600 to Alanine mutant (GST fusion) (Homo sapiens, UniProt Q92793, R601A); test: Biacore surface plasmon resonance, binding to KIX Arg-600-Ala mutant versus native KIX; conditions: 5 μM
T1 construct: spans CBP amino acids 586-666; made in house; host or cells: E. coli BL21(DE3)
Protocol: KIX domain mutants were created by standard cloning and mutagenesis methods in the pGEX4T3 vector (GE Healthcare Life Sciences). GST-KIX fusion proteins were expressed in BL21(DE3-) cells (New England Biolabs) following induction with 1 mM IPTG for 6 hours at 37 degrees. GST-KIX and its mutants were purified with the B-PER GST Fusion Protein Spin Purification Kit (Thermo Scientific/Pierce). Surface Plasmon Resonance (Biacore) analysis was performed on a GE Biacore 3000 surface plasmon resonance instrument in collaboration with the Stanford Protein and Nucleic Acid (PAN) Facility.
To confirm the binding of Compound A to the KIX domain of CBP, the KIX domain was expressed and purified as a fusion protein with Glutathione-S-Transferase (GST). Binding of Compound A to the KIX domain and two KIX domain mutants in which residues critical for CREB binding were altered or removed (Arg-600 mutated to Alanine or deletion of amino acids 586-602) was determined by Surface Plasmon Resonance (Biacore) analysis (FIG. 1, panel B). Mutation of Arginine-600 to Alanine reduced binding of Compound A by ˜45%, while a KIX domain mutant lacking amino acids 586-602 reduced binding by ˜70%. […] A hypothetical binding model between Compound A and CBP KIX domain is shown (FIG. 1, panel C). […]

[2] = tested on: normal bone marrow cells; test: Normal bone marrow samples, viability; type: cell-based, human; conditions: 72 hours
[3] = tested on: CREB target genes in KG-1 and HL-60 cells; test: RT-PCR of target genes in KG-1 and HL-60 cells; type: cell-based
Protocol: Total RNA was isolated using the Aurum RNA Isolation Mini Kit, and the iScript cDNA Synthesis Kit was used to prepare samples for qPCR (Bio-Rad). PCR was performed on the CFX384 Real-Time System (Bio-Rad) and results were analyzed using the Livak method. For analysis of RNA-seq data as target genes of known transcription factors, a curated list of all human target genes was extracted from the TRANSFAC Pro database.
To assess for potential ‘off-target’ effects of Compound A, the RNA-Seq gene expression profiles of other transcription factors that bind CBP, including Rel, RelA, RelB, Foxo3, Foxo1 and Myb, were analyzed. […] PLoS One. 2011; 6(12):e28712) (FIG. 9, panel E).

[4] = tested on: primary AML patient bone marrow samples; test: Single cell mass cytometry (CyTOF) of primary AML patient samples; type: cell-based, human
Protocol: These were stained for viability using cisplatin. Cells were fixed with 1.6% PFA (Electron Microscopy Sciences) for 10 min and washed with cell staining media (CSM). Fc receptor block was performed using Human TruStain FcX (Biolegend) following manufacturer's instructions. Cells were stained for surface proteins at room temperature for 30 min. Following staining, cells were washed twice with CSM and permeabilized with methanol pre-cooled to 4° C. for 10 min. Cells were then washed twice and stained for intracellular proteins for 30 min at room temperature. Surface and intracellular staining cocktails are listed in supplementary methods. Cells were washed and stained with 1 mL of 2000× iridium DNA intercalator (diluted 1:5000 in PBS with 1.6% PFA; DVS Sciences) overnight at 4° C. Data were acquired using internal metal isotope bead standards as previously described (Finck et al., “Normalization of mass cytometry data with bead standards.” Cytometry A. 2013; 83(5):483-94). Cell events were acquired at approximately 500 events per second on a CyTOF I (DVS Sciences/Fluidigm). All antibodies were also purchased from DVS Sciences/Fluidigm. Each patient sample was individually normalized to the internal bead standards prior to analysis. […]

T1 sequence (Q92793 586-666 R601A): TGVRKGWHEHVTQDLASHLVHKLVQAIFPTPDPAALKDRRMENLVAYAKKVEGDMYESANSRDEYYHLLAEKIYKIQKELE

Compound: N#Cc1ccc(NC(=O)c2cc3ccccc3cc2O)cc1 [Compound A, N-(4-cyanophenyl)-3-hydroxy-2-naphthamide]
- reduction of binding of Compound A by mutation of Arginine-600 to Alanine [1]: ~45%
- viability of normal bone marrow cells [2]: did not significantly change
- Myb-driven gene expression (SP3, FPR1, PRODH, SLC34A2) [3]: No changes in gene expression were observed
- CREB target gene expression (qPCR) ([3]; conditions as for RNA-Seq): consistently reduced CREB target gene expression
- cells in S-phase (CyTOF) ([4]; patient sample 97, CD34+CD38− subpopulation): < 0.1 % of total
- Bcl-2 expression (CyTOF) ([4]; patient samples 96 and 186, all cell subpopulations, 2 µM, 48 hours): reduced Bcl-2 expression
